Laboratory results published in patent US6358885B1, “Substituted phenylheterocyclic herbicides” (Mississippi State University, priority 1992, dated 2002).

How the values were obtained:
[1] = tested on: cheatgrass; assay: Test A preemergence/postemergence greenhouse plant response rating 0 to 10; assay type: in vivo, Bromus secalinus; conditions: 0 to 10 scale, 0 is no effect, 10 is complete control
Procedure: (§1) Seeds of barnyardgrass (Echinochchloa crus-galli), cheatgrass (Bromus secalinus), cocklebur (Xanthium pensylvanicum), crabgrass (Digitaria spp.), giant foxtail (Setaria faberii), morningglory (Ipomoea spp.), sorghum (Sorghum bicolor), velvetleaf (Abutilon theophrasti), and wild oat (Avena fatua) were planted into a sandy loam soil and treated preemergence with test chemicals dissolved in a non-phytotoxic solvent. At the same time, these crop and weed species were also treated postemergence with test chemicals. Plants ranged in height from two to eighteen cm and were in the two to three leaf stage for the postemergence treatment. Treated plants and untreated controls were maintained in a greenhouse for approximately eleven days, after which all treated plants were compared to untreated controls and visually evaluated for injury. Plant response ratings, summarized in Table A, are based on a 0 to 10 scale where 0 is no effect and 10 is complete control. A dash (-) response means no test results.

[2] = tested on: cocklebur; assay: as above; assay type: in vivo, Xanthium pensylvanicum; conditions: 0 to 10 scale, 0 is no effect, 10 is complete control
Procedure: as §1

[3] = tested on: giant foxtail; assay: as above; assay type: in vivo, Setaria faberii; conditions: 0 to 10 scale, 0 is no effect, 10 is complete control
Procedure: as §1

[4] = tested on: morningglory; assay: as above; assay type: in vivo, Ipomoea spp.; conditions: 0 to 10 scale, 0 is no effect, 10 is complete control
Procedure: as §1

[5] = tested on: velvetleaf; assay: as above; assay type: in vivo, Abutilon theophrasti; conditions: 0 to 10 scale, 0 is no effect, 10 is complete control
Procedure: as §1

[6] = tested on: wild oat; assay: Test A preemergence/postemergence greenhouse plant response rating 0 to 10; assay type: in vivo, Avena fatua; conditions: 0 to 10 scale, 0 is no effect, 10 is complete control
Procedure: as §1

[7] = tested on: crabgrass; assay: as above; assay type: in vivo, Digitaria spp.; conditions: 0 to 10 scale, 0 is no effect, 10 is complete control
Procedure: as §1

[8] = tested on: barnyardgrass; assay: as above; assay type: in vivo, Echinochchloa crus-galli; conditions: 0 to 10 scale, 0 is no effect, 10 is complete control
Procedure: as §1

[9] = tested on: sorghum; assay: as above; assay type: in vivo, Sorghum bicolor; conditions: 0 to 10 scale, 0 is no effect, 10 is complete control
Procedure: as §1

[10] = tested on: purple nutsedge; assay: Test H postemergence greenhouse plant response rating 0 to 10; assay type: in vivo, Cyperus rotundus; conditions: 0 to 10 scale (0 no effect, 10 complete control)
Description: (§2) Seeds of barnyardgrass (Echinochloa crus-galli), black nightshade (Solanum ptycanthum dunal), cocklebur (Xanthium pensylvanicum), common ragweed (Ambrosia elatior), corn (Zea mays), cotton (Gossypium hirsutam), crabgrass (Digitaria spp.), giant foxtail (Setaria faberii), jimsonweed (Datura stramonium), johnson grass (Sorghum halepense), morningglory (Ipomoea spp.), smartweed (Polygonum pensylvanicum), soybean (Glycine max), velvetleaf (Abutilon theophrasti) and purple nutsedge (Cyperus rotundus) tubers were planted into a silt loam soil. These crops and weeds were grown in the greenhouse until the plants ranged in height from two to eighteen cm (one to four leaf stage), then treated postemergence with the test chemicals dissolved in a non-phytotoxic solvent. Pots receiving these postemergence treatments were placed in the greenhouse and maintained according to routine greenhouse procedures. Treated plants and untreated controls were maintained in the greenhouse approximately 21 days after application of the test compound. Visual evaluations of plant injury responses were then recorded.

[11] = tested on: corn; assay: as above; assay type: in vivo, Zea mays; conditions: 0 to 10 scale (0 no effect, 10 complete control)
Description: as §2

[12] = tested on: velvetleaf; assay: as above; assay type: in vivo, Abutilon theophrasti; conditions: 0 to 10 scale (0 no effect, 10 complete control)
Description: as §2

[13] = tested on: johnson grass; assay: as above; assay type: in vivo, Sorghum halepense; conditions: 0 to 10 scale (0 no effect, 10 complete control)
Description: as §2

[14] = tested on: crabgrass; assay: as above; assay type: in vivo, Digitaria spp.; conditions: 0 to 10 scale (0 no effect, 10 complete control)
Description: as §2

[15] = tested on: cocklebur; assay: as above; assay type: in vivo, Xanthium pensylvanicum; conditions: 0 to 10 scale (0 no effect, 10 complete control)
Description: as §2

[16] = tested on: giant foxtail; assay: as above; assay type: in vivo, Setaria faberii; conditions: 0 to 10 scale (0 no effect, 10 complete control)
Description: as §2

[17] = tested on: morningglory; assay: as above; assay type: in vivo, Ipomoea spp.; conditions: 0 to 10 scale (0 no effect, 10 complete control)
Description: as §2

[18] = tested on: smartweed; assay: as above; assay type: in vivo, Polygonum pensylvanicum; conditions: 0 to 10 scale (0 no effect, 10 complete control)
Description: as §2

[19] = tested on: jimsonweed; assay: as above; assay type: in vivo, Datura stramonium; conditions: 0 to 10 scale (0 no effect, 10 complete control)
Description: as §2

[20] = tested on: common ragweed; assay: as above; assay type: in vivo, Ambrosia elatior; conditions: 0 to 10 scale (0 no effect, 10 complete control)
Description: as §2

[21] = tested on: barnyardgrass; assay: as above; assay type: in vivo, Echinochloa crus-galli; conditions: 0 to 10 scale (0 no effect, 10 complete control)
Description: as §2

[22] = tested on: black nightshade; assay: as above; assay type: in vivo, Solanum ptycanthum dunal; conditions: 0 to 10 scale (0 no effect, 10 complete control)
Description: as §2

[23] = tested on: soybean; assay: as above; assay type: in vivo, Glycine max; conditions: 0 to 10 scale (0 no effect, 10 complete control)
Description: as §2

[24] = tested on: cotton; assay: as above; assay type: in vivo, Gossypium hirsutam; conditions: 0 to 10 scale (0 no effect, 10 complete control)
Description: as §2

## Clc1ccc(-c2nc3n(c2Cl)CCC=C3)c(Cl)c1 [Compound 1]
[1]; POSTEMERGENCE, Rate 1000 g/ha
  Plant response rating, Cheatgrass: 4
[1]; PREEMERGENCE, Rate 1000 g/ha
  Plant response rating, Cheatgrass: 0
[2]; POSTEMERGENCE, Rate 1000 g/ha
  Plant response rating, Cocklebur: 8
[2]; PREEMERGENCE, Rate 1000 g/ha
  Plant response rating, Cocklebur: 0
[3]; POSTEMERGENCE, Rate 1000 g/ha
  Plant response rating, Giant foxtail: 4
[3]; PREEMERGENCE, Rate 1000 g/ha
  Plant response rating, Giant foxtail: 5
[4]; POSTEMERGENCE, Rate 1000 g/ha
  Plant response rating, Morningglory: 10
[4]; PREEMERGENCE, Rate 1000 g/ha
  Plant response rating, Morningglory: 0
[5]; POSTEMERGENCE, Rate 1000 g/ha
  Plant response rating, Velvetleaf: 10
[5]; PREEMERGENCE, Rate 1000 g/ha
  Plant response rating, Velvetleaf: 8
other
  melting point: 104 to 105 °C
[6]; POSTEMERGENCE, Rate 1000 g/ha
  Plant response rating, Wild oats: 3
[6]; PREEMERGENCE, Rate 1000 g/ha
  Plant response rating, Wild oats: 0
[7]; POSTEMERGENCE, Rate 1000 g/ha
  Plant response rating, Crabgrass: 5
[7]; PREEMERGENCE, Rate 1000 g/ha
  Plant response rating, Crabgrass: 0
[8]; POSTEMERGENCE, Rate 1000 g/ha
  Plant response rating, Barnyardgrass: 5
[8]; PREEMERGENCE, Rate 1000 g/ha
  Plant response rating, Barnyardgrass: 2
[9]; POSTEMERGENCE, Rate 1000 g/ha
  Plant response rating, Sorghum: 4
[9]; PREEMERGENCE, Rate 1000 g/ha
  Plant response rating, Sorghum: 0

## Clc1ccc(-c2nc3n(c2Br)CCCC3)c(Cl)c1 [Compound 2]
[1]; POSTEMERGENCE, Rate 2000 g/ha
  Plant response rating, Cheatgrass: 7
[1]; PREEMERGENCE, Rate 2000 g/ha
  Plant response rating, Cheatgrass: 6
[2]; POSTEMERGENCE, Rate 2000 g/ha
  Plant response rating, Cocklebur: 10
[2]; PREEMERGENCE, Rate 2000 g/ha
  Plant response rating, Cocklebur: 0
[3]; POSTEMERGENCE, Rate 2000 g/ha
  Plant response rating, Giant foxtail: 9
[3]; PREEMERGENCE, Rate 2000 g/ha
  Plant response rating, Giant foxtail: 10
[4]; POSTEMERGENCE, Rate 2000 g/ha
  Plant response rating, Morningglory: 10
[4]; PREEMERGENCE, Rate 2000 g/ha
  Plant response rating, Morningglory: 2
[5]; POSTEMERGENCE, Rate 2000 g/ha
  Plant response rating, Velvetleaf: 10
[5]; PREEMERGENCE, Rate 2000 g/ha
  Plant response rating, Velvetleaf: 10
[6]; POSTEMERGENCE, Rate 2000 g/ha
  Plant response rating, Wild oats: 5
[6]; PREEMERGENCE, Rate 2000 g/ha
  Plant response rating, Wild oats: 5
[7]; POSTEMERGENCE, Rate 2000 g/ha
  Plant response rating, Crabgrass: 7
[7]; PREEMERGENCE, Rate 2000 g/ha
  Plant response rating, Crabgrass: 8
[8]; POSTEMERGENCE, Rate 2000 g/ha
  Plant response rating, Barnyardgrass: 9
[8]; PREEMERGENCE, Rate 2000 g/ha
  Plant response rating, Barnyardgrass: 9
[9]; POSTEMERGENCE, Rate 2000 g/ha
  Plant response rating, Sorghum: 6
[9]; PREEMERGENCE, Rate 2000 g/ha
  Plant response rating, Sorghum: 8

## C#CCN1C(=O)COc2cc(F)c(-c3nn4c(c3Cl)CCCC4)cc21 [Compound 34]
[10]; Rate 4 g/ha
  Nutsedge plant response rating: 0
[10]; Rate 8 g/ha
  Nutsedge plant response rating: 0
[10]; Rate 16 g/ha
  Nutsedge plant response rating: 0
[11]; Rate 4 g/ha
  Corn G4689A plant response rating: 1
[11]; Rate 8 g/ha
  Corn G4689A plant response rating: 1
[11]; Rate 16 g/ha
  Corn G4689A plant response rating: 2
[12]; Rate 4 g/ha
  Velvetleaf plant response rating: 10
[12]; Rate 8 g/ha
  Velvetleaf plant response rating: 10
[12]; Rate 16 g/ha
  Velvetleaf plant response rating: 10
[13]; Rate 4 g/ha
  Johnson Grass plant response rating: 0
[13]; Rate 8 g/ha
  Johnson Grass plant response rating: 0
[13]; Rate 16 g/ha
  Johnson Grass plant response rating: 0
[14]; Rate 4 g/ha
  Crabgrass plant response rating: 0
[14]; Rate 8 g/ha
  Crabgrass plant response rating: 0
[14]; Rate 16 g/ha
  Crabgrass plant response rating: 0
[15]; Rate 4 g/ha
  Cocklebur plant response rating: 5
[15]; Rate 8 g/ha
  Cocklebur plant response rating: 10
[15]; Rate 16 g/ha
  Cocklebur plant response rating: 10
[16]; Rate 4 g/ha
  Giant Foxtail plant response rating: 0
[16]; Rate 8 g/ha
  Giant Foxtail plant response rating: 0
[16]; Rate 16 g/ha
  Giant Foxtail plant response rating: 0
[17]; Rate 4 g/ha
  Morningglory plant response rating: 10
[17]; Rate 8 g/ha
  Morningglory plant response rating: 10
[17]; Rate 16 g/ha
  Morningglory plant response rating: 10
[18]; Rate 4 g/ha
  Smartweed plant response rating: 5
[18]; Rate 8 g/ha
  Smartweed plant response rating: 7
[18]; Rate 16 g/ha
  Smartweed plant response rating: 8
[19]; Rate 4 g/ha
  Jimson weed plant response rating: 10
[19]; Rate 8 g/ha
  Jimson weed plant response rating: 10
[19]; Rate 16 g/ha
  Jimson weed plant response rating: 10
[20]; Rate 4 g/ha
  Common Ragweed plant response rating: 0
[20]; Rate 8 g/ha
  Common Ragweed plant response rating: 1
[20]; Rate 16 g/ha
  Common Ragweed plant response rating: 2
[21]; Rate 4 g/ha
  Barnyardgrass plant response rating: 0
[21]; Rate 8 g/ha
  Barnyardgrass plant response rating: 0
[21]; Rate 16 g/ha
  Barnyardgrass plant response rating: 0
[22]; Rate 4 g/ha
  Black Nightshade plant response rating: 5
[22]; Rate 8 g/ha
  Black Nightshade plant response rating: 10
[22]; Rate 16 g/ha
  Black Nightshade plant response rating: 10
[23]; Rate 4 g/ha
  Soybean plant response rating: 7
[23]; Rate 8 g/ha
  Soybean plant response rating: 7
[23]; Rate 16 g/ha
  Soybean plant response rating: 10
[24]; Rate 4 g/ha
  Cotton plant response rating: 10
[24]; Rate 8 g/ha
  Cotton plant response rating: 10
[24]; Rate 16 g/ha
  Cotton plant response rating: 10
